The record followed here is PubChem BioAssay (NCI).

Test systems include NCI-H460 lung; SNB-75 CNS; LOX IMVI melanoma; MALME-3M melanoma; MDA-N; HCT-116 colon; HOP-62 NSCLC; RPMI-8226 leukemia; IGROV1 ovarian; OVCAR-5 ovarian.
Assay in all cases: NCI tumour cell line growth inhibition, 48 h

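Where inhibition never reached the appropriate level, the endpoint shown equals the highest concentration tested. Otherwise, values were interpolated linearly from a five-concentration, 48-hour dose response in 96-well plates. At the TGI there is no net growth.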

`COC(=O)C1(NC(=O)C(N)CC(=O)O)C(C)C1C` (stereo not given): the TGI in the test with NCI-H460 lung, in the test with SNB-75 CNS, in the test on LOX IMVI melanoma, in the test with MALME-3M melanoma, in the test on MDA-N and with HCT-116 colon was over 100 µM in each case. Further, the TGI in the test with HOP-62 NSCLC, in the test with RPMI-8226 leukemia, in the test with IGROV1 ovarian and with OVCAR-5 ovarian was over 100 µM throughout.

Consider `O=C([C@H](O)[C@@H](O)c1ccc(Br)cc1)C12CC3CC(CC(C3)C1)C2`, for which the TGI is 16.1 µM in the test with NCI-H460 lung; 8.2 µM in the test on SNB-75 CNS; over 100 µM in the test on LOX IMVI melanoma; 51.4 µM in the test on MALME-3M melanoma; over 100 µM in the test with MDA-N; over 51.9 µM in the test on HCT-116 colon. For the same compound, the TGI is 26.6 µM in the test on HOP-62 NSCLC, over 100 µM with RPMI-8226 leukemia, 12.9 µM with IGROV1 ovarian and over 72.9 µM in the test with OVCAR-5 ovarian.

With `COc1ccc2[nH]c(C(=O)N3CC(CCl)c4ccc([N+](=O)[O-])cc43)cc2c1` (stereo not given), the TGI in the test with NCI-H460 lung is over 100 µM; in the test on SNB-75 CNS, over 88.7 µM; in the test with LOX IMVI melanoma, over 100 µM; in the test with MALME-3M melanoma, over 100 µM; in the test with MDA-N it was over 100 µM; in the test with HCT-116 colon, over 100 µM. In addition, the TGI in the test with HOP-62 NSCLC, in the test with RPMI-8226 leukemia, in the test on IGROV1 ovarian and in the test with OVCAR-5 ovarian was over 100 µM in each case.

`Oc1[nH]c2ccccc2c1N=NC(=S)N1CCCCCC1`: the TGI in the test with NCI-H460 lung came to 5.28 µM; in the test with SNB-75 CNS it was 4.34 µM; with LOX IMVI melanoma, 2.41 µM; in the test with MALME-3M melanoma, 3.02 µM; with MDA-N it was 22.7 µM; in the test with HCT-116 colon it was 1.9 µM. The TGI stood at 4.09 µM in the test on HOP-62 NSCLC, 4.15 µM with RPMI-8226 leukemia, 2.35 µM in the test on IGROV1 ovarian and 12.4 µM in the test with OVCAR-5 ovarian.
